Here are results for 22 molecules from patent publication US20260258035A1, “FIVE-MEMBERED AND SIX-MEMBERED NITROGEN-CONTAINING COMPOUND, AND INTERMEDIATE, PREPARATION METHOD AND USE THEREOF” (HANGZHOU SYNRX THERAPEUTICS BIOMEDICAL TECHNOLOGY CO., LTD., priority 2022, published 2026).

The target of one assay is PARG (Homo sapiens, UniProt Q86W56). As to the kind of experiment: Biochemical assay (PARG, TFMU-ADPr substrate). The conditions noted are these: PARG, TFMU-ADPr substrate.
Another assay deals with HCC1806. As to the kind of experiment: Cell viability assay (CellTiter-Glo). Type of assay: cell-based, Human. The conditions noted are these: Homo sapiens, HCC1806, 168 h, HCC1806, 7 days, CellTiter-Glo; read-out: IC50 (nM) in cell viability assay. (In general: Cellular ATP, detected with luciferase, serves as a proxy for viable cell number.)

PARG, sequence (Q86W56 whole entry): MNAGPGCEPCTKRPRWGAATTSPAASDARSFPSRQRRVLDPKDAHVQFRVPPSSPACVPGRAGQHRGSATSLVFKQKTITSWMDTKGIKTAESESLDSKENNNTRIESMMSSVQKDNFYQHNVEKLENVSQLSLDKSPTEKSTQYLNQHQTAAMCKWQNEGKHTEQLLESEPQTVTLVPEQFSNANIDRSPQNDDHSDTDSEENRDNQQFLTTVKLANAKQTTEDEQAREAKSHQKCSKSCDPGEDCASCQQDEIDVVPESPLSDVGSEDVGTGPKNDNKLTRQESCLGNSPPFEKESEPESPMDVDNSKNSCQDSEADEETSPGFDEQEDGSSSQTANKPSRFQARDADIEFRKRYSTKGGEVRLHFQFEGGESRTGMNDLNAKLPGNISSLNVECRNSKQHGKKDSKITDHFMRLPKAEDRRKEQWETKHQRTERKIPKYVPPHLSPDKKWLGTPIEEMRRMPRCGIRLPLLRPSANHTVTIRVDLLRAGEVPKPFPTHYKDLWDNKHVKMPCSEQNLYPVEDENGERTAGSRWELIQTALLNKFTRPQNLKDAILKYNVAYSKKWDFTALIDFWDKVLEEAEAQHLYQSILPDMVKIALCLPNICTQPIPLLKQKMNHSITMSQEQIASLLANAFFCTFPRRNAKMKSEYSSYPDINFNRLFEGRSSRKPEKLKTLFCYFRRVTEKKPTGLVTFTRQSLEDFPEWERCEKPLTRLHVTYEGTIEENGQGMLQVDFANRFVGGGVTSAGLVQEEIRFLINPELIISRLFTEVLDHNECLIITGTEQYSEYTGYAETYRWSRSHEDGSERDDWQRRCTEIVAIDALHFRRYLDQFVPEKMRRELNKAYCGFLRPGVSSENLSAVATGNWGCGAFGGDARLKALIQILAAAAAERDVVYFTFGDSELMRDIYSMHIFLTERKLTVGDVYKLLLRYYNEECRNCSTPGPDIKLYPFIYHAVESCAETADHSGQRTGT

One may read the IC50 as the point on the concentration scale where inhibition reaches its midpoint. For `Cc1nc(-c2nnc(C(F)(F)F)s2)n2cc(S(=O)(=O)NC3(C#N)CC3)cc(N3CCN(C(=O)C4CCO4)CC3)c12` (centres unmarked) [Example 172, N-(1-cyanocyclopropyl)-1-methyl-8-(4-(oxetane-2-carbonyl)piperazin-1-yl)-3-(5-(trifluoromethyl)-1,3,4-thiadiazol-2-yl)imidazo[1,5-a]pyridine-6-sulfonamide], the IC50 at PARG is 10 nM; in the assay with HCC1806, 308 nM.

For the molecule `CC(C)C(=O)N1CCN(c2cc(S(=O)(=O)NC3(C#N)CC3)cn3c(-c4nnc(C(F)(F)F)s4)ncc23)C(C)C1` (centres unmarked) [Example 344, N-(1-cyanocyclopropyl)-8-(4-isobutyryl-2-methylpiperazin-1-yl)-3-(5-(trifluoromethyl)-1,3,4-thiadiazol-2-yl)imidazo[1,5-a]pyridine-6-sulfonamide], the results for the IC50 at PARG and with HCC1806 were 38.3 nM and 586 nM, respectively.

As to `CC1(NS(=O)(=O)c2cc(N3CCN(C(=O)C4CCOC4)CC3)c3cnc(-c4nnc(C(F)(F)F)s4)n3c2)CC1` (centres unmarked) [Example 293, N-(1-methylcyclopropyl)-8-(4-(tetrahydrofuran-3-carbonyl)piperazin-1-yl)-3-(5-(trifluoromethyl)-1,3,4-thiadiazol-2-yl)imidazo[1,5-a]pyridine-6-sulfonamide], the IC50 at PARG was 9.12 nM; with HCC1806, 97 nM.

On to `CC1(NS(=O)(=O)c2cc(N3CCN[C@H](CF)C3)c3cnc(-c4nnc(C(F)F)s4)n3c2)COC1` [Example 191, (S)-3-(5-(difluoromethyl)-1,3,4-thiadiazol-2-yl)-8-(3-(fluoromethyl)piperazin-1-yl)-N-(3-methyloxetan-3-yl)imidazo[1,5-a]pyridine-6-sulfonamide], for which the figures for the IC50 on PARG and in the assay on HCC1806 were 32 nM and 723 nM, respectively.

As for `N#CC1(NS(=O)(=O)c2cc(N3CCN(C(=O)C(F)F)CC3)c3cnc(-c4nnc(C(F)(F)F)s4)n3c2)CC1` [Example 241, N-(1-cyanocyclopropyl)-8-(4-(2,2-difluoroacetyl)piperazin-1-yl)-3-(5-(trifluoromethyl)-1,3,4-thiadiazol-2-yl)imidazo[1,5-a]pyridine-6-sulfonamide], the figures for the IC50 on PARG and in the assay on HCC1806 were 24 nM and 4180 nM, respectively.

For `N#CC1(NS(=O)(=O)c2cc(N3CCN(C(=O)[C@H]4CCCN4)CC3)c3cnc(-c4nnc(C(F)(F)F)s4)n3c2)CC1` [Example 265, (R)-N-(1-cyanocyclopropyl)-8-(4-prolylpiperazin-1-yl)-3-(5-(trifluoromethyl)-1,3,4-thiadiazol-2-yl)imidazo[1,5-a]pyridine-6-sulfonamide], the IC50 turned out to be 158 nM against PARG and 8000 nM with HCC1806.

As to `C[C@H]1CN(c2cc(S(=O)(=O)NC3(C)COC3)cn3c(-c4nnc(C(F)F)s4)cnc23)C[C@H](C)N1` [Example 182, 3-(5-(difluoromethyl)-1,3,4-thiadiazol-2-yl)-8-((3S,5S)-3,5-dimethylpiperazin-1-yl)-N-(3-methyloxetan-3-yl)imidazo[1,2-a]pyridine-6-sulfonamide], the IC50 was 0.53 nM on PARG and 128 nM with HCC1806.

Take `N#CC1(NS(=O)(=O)c2cc(N3CCN(C(=O)C4NCCS4)CC3)c3cnc(-c4nnc(C(F)(F)F)s4)n3c2)CC1` (centres unmarked) [Example 281, N-(1-cyanocyclopropyl)-8-(4-(thiazolidine-2-carbonyl)piperazin-1-yl)-3-(5-(trifluoromethyl)-1,3,4-thiadiazol-2-yl)imidazo[1,5-a]pyridine-6-sulfonamide]: the values for the half-inhibitory concentration (IC50) against PARG and with HCC1806 were 66.1 nM and 229 nM, respectively.

With `CN(C)C(=O)N1CCN(c2cc(S(=O)(=O)NC3(C)COC3)cn3c(-c4nnc(C(F)F)s4)nc(Cl)c23)CC1` [Example 128, 4-(1-chloro-3-(5-(difluoromethyl)-1,3,4-thiadiazol-2-yl)-6-(N-(3-methyloxetan-3-yl)sulfamoyl)imidazo[1,5-a]pyridin-8-yl)-N,N-dimethylpiperazine-1-carboxamide], the IC50 at PARG came out at 0.99 nM; in the assay with HCC1806, 28 nM.

On to `CC1(C(=O)N2CCN(c3cc(S(=O)(=O)NC4(C#N)CC4)cn4c(-c5nnc(C(F)(F)F)s5)ncc34)CC2)COC1` [Example 299, N-(1-cyanocyclopropyl)-8-(4-(3-methyloxetane-3-carbonyl)piperazin-1-yl)-3-(5-(trifluoromethyl)-1,3,4-thiadiazol-2-yl)imidazo[1,5-a]pyridine-6-sulfonamide], for which the IC50 against PARG was found to be 24 nM; in the assay on HCC1806, 1030 nM.

Take `COC1CN(c2cc(S(=O)(=O)NC3(C)CC3)cn3c(-c4nnc(C(F)F)s4)ncc23)CCC1O` (centres unmarked) [Example 348, 3-(5-(difluoromethyl)-1,3,4-thiadiazol-2-yl)-8-(4-hydroxy-3-methoxypiperidin-1-yl)-N-(1-methylcyclopropyl)imidazo[1,5-a]pyridine-6-sulfonamide]: the IC50 on PARG came out at 1.99 nM; in the assay with HCC1806, 257 nM.

`CC1(NS(=O)(=O)c2cc(N3CCN(C(=O)[C@H]4CC(F)(F)CN4)CC3)c3cnc(-c4nnc(C(F)(F)F)s4)n3c2)CC1` [Example 352, (R)-8-(4-(4,4-difluoropyrrolidine-2-carbonyl)piperazin-1-yl)-N-(1-methylcyclopropyl)-3-(5-(trifluoromethyl)-1,3,4-thiadiazol-2-yl)imidazo[1,5-a]pyridine-6-sulfonamide]: the IC50 came out at 15.3 nM against PARG and 561 nM with HCC1806.

On to `COC1(CN2CCN(c3cc(S(=O)(=O)NC4(C)CC4)cn4c(-c5nnc(C(F)F)s5)ncc34)CC2)CC1` [Example 350, 3-(5-(difluoromethyl)-1,3,4-thiadiazol-2-yl)-8-(4-((1-methoxycyclopropyl)methyl)piperazin-1-yl)-N-(1-methylcyclopropyl)imidazo[1,5-a]pyridine-6-sulfonamide], for which the IC50 against PARG is 20 nM; with HCC1806 it was 713 nM.

Take `Cc1ncnn1CC(=O)N1CCN(c2cc(S(=O)(=O)NC3(C)CC3)cn3c(-c4nnc(C(F)(F)F)s4)ncc23)CC1` [Example 335, 8-(4-(2-(5-methyl-1H-1,2,4-triazol-1-yl)acetyl)piperazin-1-yl)-N-(1-methylcyclopropyl)-3-(5-(trifluoromethyl)-1,3,4-thiadiazol-2-yl)imidazo[1,5-a]pyridine-6-sulfonamide]: the IC50 against PARG turned out to be 6.55 nM; in the assay on HCC1806 it was 480 nM.

As for `CC1(NS(=O)(=O)c2cc(N3CCN(C(=O)c4ccncc4)CC3)c3cnc(-c4nnc(C(F)F)s4)n3c2)CC1` [Example 338, 3-(5-(difluoromethyl)-1,3,4-thiadiazol-2-yl)-8-(4-isonicotinoylpiperazin-1-yl)-N-(1-methylcyclopropyl)imidazo[1,5-a]pyridine-6-sulfonamide], the IC50 on PARG was 0.48 nM; with HCC1806, 50 nM.

Consider `CC(CO)C(=O)N1CCN(c2cc(S(=O)(=O)NC3(C#N)CC3)cn3c(-c4nnc(C(F)(F)F)s4)ncc23)CC1` (centres unmarked) [Example 259, N-(1-cyanocyclopropyl)-8-(4-(3-hydroxy-2-methylpropanoyl)piperazin-1-yl)-3-(5-(trifluoromethyl)-1,3,4-thiadiazol-2-yl)imidazo[1,5-a]pyridine-6-sulfonamide], for which the figures for the IC50 at PARG and in the assay on HCC1806 were 45.7 nM and 1500 nM, respectively.

For `[2H]c1nc(-c2nnc(C(F)F)s2)n2cc(S(=O)(=O)NC3(C)COC3)cc(N3C[C@H](C)N[C@@H](C)C3)c12` [Example 160, 3-(5-(difluoromethyl)-1,3,4-thiadiazol-2-yl)-8-((3S,5S)-3,5-dimethylpiperazin-1-yl)-N-(3-methyloxetan-3-yl)imidazo[1,5-a]pyridine-6-sulfonamide-1-d], the values for the IC50 against PARG and in the assay on HCC1806 were 0.23 nM and 23.5 nM, respectively.

Take `N#CC1(NS(=O)(=O)c2ccc3c(C4=CC5(CC4)CN(C(=O)C4CC4(F)F)C5)nc(-c4nnc(C(F)(F)F)s4)n3c2)CC1` (centres unmarked) [Example 232, N-(1-cyanocyclopropyl)-1-(2-(2,2-difluorocyclopropane-1-carbonyl)-2-azaspiro[3.4]oct-5-en-6-yl)-3-(5-(trifluoromethyl)-1,3,4-thiadiazol-2-yl)imidazo[1,5-a]pyridine-6-sulfonamide]: the IC50 turned out to be 31.6 nM against PARG and 953 nM in the assay on HCC1806.

Regarding `CC1(NS(=O)(=O)c2cc(N3CCN(C(=O)C4(OCCO)CC4)CC3)c3cnc(-c4nnc(C(F)(F)F)s4)n3c2)CC1` [Example 383, 8-(4-(1-(2-hydroxyethoxy)cyclopropane-1-carbonyl)piperazin-1-yl)-N-(1-methylcyclopropyl)-3-(5-(trifluoromethyl)-1,3,4-thiadiazol-2-yl)imidazo[1,5-a]pyridine-6-sulfonamide], the IC50 against PARG was 0.25 nM; in the assay with HCC1806, 14.8 nM.

Consider `CC(C)C(=O)N1CCN(c2cc(S(=O)(=O)NC3CC3)cn3c(-c4nnc(C(F)F)s4)nc(Cl)c23)C[C@H]1C` [Example 131, (R)-1-chloro-N-cyclopropyl-3-(5-(difluoromethyl)-1,3,4-thiadiazol-2-yl)-8-(4-isobutyryl-3-methylpiperazin-1-yl)imidazo[1,5-a]pyridine-6-sulfonamide], for which the IC50 on PARG came out at 22.9 nM; with HCC1806 it was 1680 nM.

Take `CC(=O)N1[C@@H](C)CN(c2cc(S(=O)(=O)NC3(C)COC3)cn3c(-c4nnc(C(F)F)s4)ncc23)C[C@@H]1C` [Example 401, 8-((3S,5S)-4-acetyl-3,5-dimethylpiperazin-1-yl)-3-(5-(difluoromethyl)-1,3,4-thiadiazol-2-yl)-N-(3-methyloxetan-3-yl)imidazo[1,5-a]pyridine-6-sulfonamide]: the IC50 stood at 158 nM on PARG and 2800 nM in the assay on HCC1806.

Take `CC1(NS(=O)(=O)c2cc(N3CCN(C(=O)[C@H]4CCN4CCCF)CC3)c3cnc(-c4nnc(C(F)(F)F)s4)n3c2)CC1` [Example 319, (R)-8-(4-(1-(3-fluoropropyl)azetidine-2-carbonyl)piperazin-1-yl)-N-(1-methylcyclopropyl)-3-(5-(trifluoromethyl)-1,3,4-thiadiazol-2-yl)imidazo[1,5-a]pyridine-6-sulfonamide]: the IC50 against PARG amounted to 5.62 nM; with HCC1806, 147 nM.
